Reference: article PMC10141620 (Viruses, 2023)
Values after ≈ are worked out from the molar mass of the structure shown. Where two headings read alike, the source gives them in different places.

Key:
in vitro [1] = settings: human
MERS-CoV, EMC/2012 = assay: microbe, parasite or virus in culture; assay type: cell-based; settings: Middle East respiratory syndrome-related coronavirus, Calu-3, read-out: IC50, MERS-CoV
CYP2C8 = CYP2C8 (Homo sapiens, UniProt P10632); assay: biochemical
[2] = pH 7.4
in vitro [3] = settings: human; remark: listed apart in the source
[4] = tested on: NL4-3ΔEnv-NanoLuc/SARS-CoV-1 pseudovirus; assay: microbe, parasite or virus in culture; assay type: cell-based; settings: Severe acute respiratory syndrome coronavirus
Plasma protein binding = settings: human, pH 7.4
CYP2C9 = CYP2C9 (Homo sapiens, UniProt P11712); assay: biochemical
in vitro [5] = settings: human; remark: listed apart in the source
CYP2D6 = CYP2D6 (Homo sapiens, UniProt P10635); assay: biochemical
in vitro [6] = settings: human; remark: listed apart in the source
[7] = tested on: SARS-CoV-2 strains, SARS-COV-1, and MERS-CoV pseudoviruses; assay: organism not typed; assay type: cell-based; settings: Calu-3, read-out: IC50, range over all the viral clones evaluated
in vitro [8] = settings: human; remark: listed apart in the source
CYP2B6 = CYP2B6 (Homo sapiens, UniProt P20813); assay: biochemical
in vitro [9] = settings: human; remark: listed apart in the source
SARS-CoV-1 Urbani = assay: microbe, parasite or virus in culture; assay type: cell-based; settings: Severe acute respiratory syndrome coronavirus, Calu-3, read-out: IC50, SARS-CoV-1 Urbani
physchem = settings: pH 7.4
[10] = tested on: NL4-3ΔEnv-NanoLuc/SARS-CoV-2 (USA-WA1/2020) pseudovirus; assay: organism not typed; assay type: cell-based
CYP2C19 = CYP2C19 (Homo sapiens, UniProt P33261); assay: biochemical
[11] = tested on: NL4-3ΔEnv-NanoLuc/MERS-CoV pseudovirus; assay: microbe, parasite or virus in culture; assay type: cell-based; settings: Middle East respiratory syndrome-related coronavirus
[12] = tested on: SARS-CoV-2 spike (Wuhan-Hu-1) mediated cell-to-cell fusion, Jurkat donor / 293T/ACE2 acceptor cells; assay: microbe, parasite or virus in culture; assay type: cell-based; settings: Severe acute respiratory syndrome coronavirus 2, 4 h; read-out: IC50, cell-to-cell fusion inhibition
[13] = tested on: NL4-3ΔEnvLuc/A-MLV pseudovirus; assay: microbe, parasite or virus in culture; assay type: cell-based, amphotropic murine leukemia virus (A-MLV); settings: 293T/ACE2, read-out: A-MLV IC50
in vitro [14] = settings: human, microsomes, pH 7.4
CYP1A2 = CYP1A2 (Homo sapiens, UniProt P05177); assay: biochemical
in vitro [15] = settings: human; remark: listed apart in the source

Sequence of CYP2B6 (P20813 whole entry): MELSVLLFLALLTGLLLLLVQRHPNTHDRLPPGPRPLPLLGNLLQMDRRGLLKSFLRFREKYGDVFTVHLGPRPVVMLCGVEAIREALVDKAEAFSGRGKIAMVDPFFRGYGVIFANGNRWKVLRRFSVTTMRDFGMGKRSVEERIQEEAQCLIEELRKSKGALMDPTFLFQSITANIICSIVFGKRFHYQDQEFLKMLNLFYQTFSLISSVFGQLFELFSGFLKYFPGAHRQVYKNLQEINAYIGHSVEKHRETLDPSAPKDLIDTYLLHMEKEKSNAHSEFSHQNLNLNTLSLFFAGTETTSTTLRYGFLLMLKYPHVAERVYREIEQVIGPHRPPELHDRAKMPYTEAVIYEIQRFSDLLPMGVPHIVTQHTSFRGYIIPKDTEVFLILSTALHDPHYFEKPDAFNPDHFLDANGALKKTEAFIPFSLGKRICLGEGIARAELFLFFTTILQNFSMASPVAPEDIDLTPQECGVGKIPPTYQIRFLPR
Sequence of CYP2D6 (P10635 whole entry): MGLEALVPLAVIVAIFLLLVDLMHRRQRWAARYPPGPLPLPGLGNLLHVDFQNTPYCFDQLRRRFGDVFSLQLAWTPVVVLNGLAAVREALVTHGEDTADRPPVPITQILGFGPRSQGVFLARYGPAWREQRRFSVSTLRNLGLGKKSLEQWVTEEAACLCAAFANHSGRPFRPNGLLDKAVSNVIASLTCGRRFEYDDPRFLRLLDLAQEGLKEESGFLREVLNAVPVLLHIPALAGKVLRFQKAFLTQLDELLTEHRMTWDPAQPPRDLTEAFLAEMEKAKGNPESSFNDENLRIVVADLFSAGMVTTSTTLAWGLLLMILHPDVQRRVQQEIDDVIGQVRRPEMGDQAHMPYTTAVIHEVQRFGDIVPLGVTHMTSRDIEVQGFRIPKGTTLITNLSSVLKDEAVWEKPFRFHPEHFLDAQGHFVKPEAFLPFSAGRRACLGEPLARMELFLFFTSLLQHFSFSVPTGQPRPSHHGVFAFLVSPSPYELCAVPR
Sequence of CYP2C9 (P11712 whole entry): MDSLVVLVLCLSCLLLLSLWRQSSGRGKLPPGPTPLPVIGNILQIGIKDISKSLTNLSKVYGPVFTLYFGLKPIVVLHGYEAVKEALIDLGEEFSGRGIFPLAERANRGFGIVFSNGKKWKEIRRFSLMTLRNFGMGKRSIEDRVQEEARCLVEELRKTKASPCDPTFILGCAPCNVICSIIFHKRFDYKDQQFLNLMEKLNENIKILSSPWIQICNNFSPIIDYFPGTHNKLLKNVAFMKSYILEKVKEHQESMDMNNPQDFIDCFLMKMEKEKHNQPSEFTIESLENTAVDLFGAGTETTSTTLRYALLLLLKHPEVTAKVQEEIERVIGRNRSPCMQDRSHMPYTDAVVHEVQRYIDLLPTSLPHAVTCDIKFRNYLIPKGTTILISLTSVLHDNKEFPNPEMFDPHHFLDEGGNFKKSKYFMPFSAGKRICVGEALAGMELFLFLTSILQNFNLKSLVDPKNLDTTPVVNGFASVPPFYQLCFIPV
Sequence of CYP1A2 (P05177 whole entry): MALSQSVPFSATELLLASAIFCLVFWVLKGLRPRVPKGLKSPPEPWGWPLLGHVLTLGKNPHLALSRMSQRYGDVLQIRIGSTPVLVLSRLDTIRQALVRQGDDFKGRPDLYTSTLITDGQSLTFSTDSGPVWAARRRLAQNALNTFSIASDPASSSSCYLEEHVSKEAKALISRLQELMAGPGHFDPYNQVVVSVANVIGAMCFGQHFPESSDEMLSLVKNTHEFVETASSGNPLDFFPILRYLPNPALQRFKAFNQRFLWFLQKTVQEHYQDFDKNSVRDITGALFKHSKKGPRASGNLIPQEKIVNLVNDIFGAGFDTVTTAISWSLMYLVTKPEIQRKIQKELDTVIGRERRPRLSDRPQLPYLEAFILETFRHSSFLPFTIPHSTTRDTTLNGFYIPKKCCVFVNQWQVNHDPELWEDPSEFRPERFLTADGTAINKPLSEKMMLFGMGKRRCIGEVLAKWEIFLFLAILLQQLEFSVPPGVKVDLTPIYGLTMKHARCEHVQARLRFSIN
Sequence of CYP2C19 (P33261 whole entry): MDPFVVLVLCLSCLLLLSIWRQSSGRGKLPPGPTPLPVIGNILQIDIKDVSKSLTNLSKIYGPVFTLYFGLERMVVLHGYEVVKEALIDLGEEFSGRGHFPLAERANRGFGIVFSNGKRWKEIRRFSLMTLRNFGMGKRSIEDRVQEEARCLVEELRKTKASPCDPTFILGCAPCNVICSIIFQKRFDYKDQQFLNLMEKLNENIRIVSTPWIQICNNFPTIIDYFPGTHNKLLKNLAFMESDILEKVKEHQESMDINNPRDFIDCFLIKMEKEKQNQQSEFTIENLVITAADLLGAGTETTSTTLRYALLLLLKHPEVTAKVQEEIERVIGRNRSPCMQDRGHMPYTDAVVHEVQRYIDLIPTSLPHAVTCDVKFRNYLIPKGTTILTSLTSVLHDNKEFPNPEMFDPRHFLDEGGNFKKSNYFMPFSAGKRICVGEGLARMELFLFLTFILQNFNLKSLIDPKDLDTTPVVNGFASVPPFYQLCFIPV
Sequence of CYP2C8 (P10632 whole entry): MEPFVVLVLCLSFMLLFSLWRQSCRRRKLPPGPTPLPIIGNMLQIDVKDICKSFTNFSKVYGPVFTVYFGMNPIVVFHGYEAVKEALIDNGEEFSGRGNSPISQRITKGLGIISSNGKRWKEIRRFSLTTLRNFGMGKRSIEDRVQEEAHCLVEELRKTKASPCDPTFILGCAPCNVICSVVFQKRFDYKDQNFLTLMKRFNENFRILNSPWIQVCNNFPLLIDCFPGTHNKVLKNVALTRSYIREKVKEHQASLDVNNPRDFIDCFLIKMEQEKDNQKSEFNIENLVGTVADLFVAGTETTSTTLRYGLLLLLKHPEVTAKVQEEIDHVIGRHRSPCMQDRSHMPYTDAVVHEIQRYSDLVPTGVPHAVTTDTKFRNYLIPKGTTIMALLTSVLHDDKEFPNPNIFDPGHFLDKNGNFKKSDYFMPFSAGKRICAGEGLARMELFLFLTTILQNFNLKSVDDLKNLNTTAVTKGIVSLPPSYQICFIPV

For `Cc1cc2nc3s/c(=C/c4ccc(-c5cccc(C(=O)O)c5)o4)c(=O)n3c2cc1C` [NBCoV63], the CC50 (in vitro [1]) was ≥ 50000 nM, the IC50 (MERS-CoV, EMC/2012) was 8010 nM and the IC50 (CYP2C8) was > 25000 nM. For the same compound, the solubility [2] was “low”, the CC50 (in vitro [3]) was > 50000 nM and the IC50 ([4]; 293T/ACE2, read-out: SARS-CoV-1 IC50) was 110 ± 0.5 nM. The IC50 ([4]; A549-ACE2, read-out: SARS-CoV-1 IC50) was 59 ± 1.5 nM, the IC50 ([4]; Calu-3, read-out: SARS-CoV-1 IC50) was 133 ± 28 nM and the fraction unbound at 4 h, 5 µM (Plasma protein binding) was < 0.005. The IC50 (CYP2C9) was > 25000 nM, the CC50 (in vitro [5]) was 50000 nM and the IC50 (CYP2D6) was > 25000 nM. For the same compound, the CC50 (in vitro [6]) was > 50000 nM, the IC50 [7] was 120 to 220 nM and the CC50 (in vitro [8]) was > 50000 nM. The IC50 (CYP2B6) was > 25000 nM, the CC50 (in vitro [9]) was ≥ 50000 nM and the IC50 (SARS-CoV-1 Urbani) was 3980 nM. The solubility (physchem) was 6.25 µM (≈ 2.6 µg/mL), the “antiviral activity (in words)” value [10] was “Active” and the IC50 ([10]; Calu-3, read-out: SARS-CoV-2 USA-WA1/2020 IC50) was 120 ± 6 nM. The IC50 ([10]; Pseudovirus, 293T/ACE2) was 80 ± 7 nM, the IC50 ([10]; Pseudovirus, A549-ACE2) was 55 ± 3 nM and the IC50 (CYP2C19) was > 25000 nM. For the same compound, the IC50 ([11]; Caco-2, read-out: MERS-CoV IC50) was 75 ± 25 nM, the IC50 ([11]; Calu-3, read-out: MERS-CoV IC50) was 220 ± 30 nM and the IC50 ([11]; MRC5, read-out: MERS-CoV IC50) was 102 ± 1 nM. For the same compound, the IC50 [12] was 900 nM, the IC50 [13] was 303 ± 29 nM and the half-life (in vitro [14]) was > 3 h. For the same compound, the microsomal CLint (in vitro [14]) was 3.4 µL/min/mg, the IC50 (CYP1A2) was > 25000 nM and the efflux ratio (in vitro [15]; Caco-2) was 42.3. For the same compound, the Papp A→B (in vitro [15]; Caco-2, pH 7.4) was 0.00242 ×10⁻⁶ cm/s and the Papp B→A (in vitro [15]; Caco-2, pH 7.4) was 0.19 ×10⁻⁶ cm/s.
